Patent US10183942B2, “JAK kinase inhibitor compounds for treatment of respiratory disease” (THERAVANCE BIOPHARMA R&D IP, LLC, priority 2015, dated 2019)
pKi: −log10 of the molar value.

Experiments:
[1] = system: interleukin-13 induced STAT6 phosphorylation in BEAS-2B human lung epithelial cells; assay: Cellular JAKI potency assay (AlphaScreen, BEAS-2B); type: cell-based; details: C-1 vs 1, C-2 vs 7, C-3 vs 13, C-4 vs 6
Description: The AlphaScreen JAKI cellular potency assay was carried out by measuring interleukin-13 (IL-13, R&D Systems) induced STAT6 phosphorylation in BEAS-2B human lung epithelial cells (ATCC). The anti-STAT6 antibody (Cell Signaling Technologies) was conjugated to AlphaScreen acceptor beads (Perkin Elmer), while the anti-pSTAT6 (pTyr641) antibody (Cell Signaling Technologies) was biotinylated using EZ-Link Sulfo-NHS-Biotin (Thermo Scientific).
BEAS-2B cells were grown at 37° C. in a 5% CO2 humidified incubator in 50% DMEM/50% F-12 medium (Life Technologies) supplemented with 10% FBS (Hyclone), 100 U/mL penicillin, 100 μg/mL streptomycin (Life Technologies), and 2 mM GlutaMAX (Life Technologies). On day 1 of the assay, cells were seeded at a 7,500 cells/well density in white poly-D-lysine-coated 384-well plates (Corning) with 25 μL medium, and were allowed to adhere overnight in the incubator. On day 2 of the assay, the medium was removed and replaced with 12 μL of assay buffer (Hank's Balanced Salt Solution/HBSS, 25 mM HEPES, and 1 mg/ml bovine serum albumin/BSA) containing dose-responses of test compounds. Compounds were serially diluted in DMSO and then diluted another 1000-fold in media to bring the final DMSO concentration to 0.1%. Cells were incubated with test compounds at 37° C. for 1 h, and followed by the addition of 12 μl of pre-warmed IL-13 (80 ng/ml in assay buffer) for stimulation. After incubating at 37° C. for 30 min, the assay buffer (containing compound and IL-13) was removed, and 10 μl of cell lysis buffer (25 mM HEPES, 0.1% SDS, 1% NP-40, 5 mM MgCl2, 1.3 mM EDTA, 1 mM EGTA, and supplement with Complete Ultra mini protease inhibitors and PhosSTOP from Roche Diagnostics). The plates were shaken at ambient temperature for 30 min before the addition of detection reagents. […] After a minimum of 2 h incubation, the assay plates were read on the EnVision plate reader.
Results were expressed as the negative logarithm of the IC50 value, pIC50.

[2] = system: IL-13 induced pSTAT6 induction in lung tissue; assay: Murine model of IL-13 induced pSTAT6 induction in lung tissue; type: in vivo; details: mouse lung; for lung concentration smaller than that of the corresponding compound of the invention by a factor: pharmacodynamic assay, C-1 vs 1, C-2 vs 7, C-3 vs 13, C-4 vs 6; for inhibition of STAT6 phosphorylation in the pharmacodynamic assay: IL-13 challenge 4 h after dose
Description: 11-13 is an important cytokine underlying the pathophysiology of asthma (Kudlacz et al. Eur. J. Pharmacol, 2008, 582, 154-161). IL-13 binds to cell surface receptors activating members of the Janus family of kinases (JAK) which then phosphorylate STAT6 and subsequently activates further transcription pathways. In the described model, a dose of IL-13 was delivered locally into the lungs of mice to induce the phosphorylation of STAT6 (pSTAT6) which is then measured as the endpoint.
Adult balb/c mice from Harlan were used in the assay. On the day of study, animals were lightly anesthetized with isoflurane and administered either vehicle or test compound (0.5 mg/mL, 50 μL total volume over several breaths) via oral aspiration. Animals were placed in lateral recumbency post dose and monitored for full recovery from anesthesia before being returned to their home cage. Four hours later, animals were once again briefly anesthetized and challenged with either vehicle or IL-13 ([…] total dose delivered, 50 μL total volume) via oral aspiration before being monitored for recovery from anesthesia and returned to their home cage. One hour after vehicle or IL-13 administration, lungs were collected for both pSTAT6 detection using an anti-pSTAT6 ELISA (rabbit mAb capture/coating antibody; mouse mAb detection/report antibody: anti-pSTAT6-pY641; secondary antibody: anti-mouse IgG-HRP) and analyzed for total drug concentration as described above in Assay 4.
Selected compounds of the invention were tested in the assay. Activity in the model is evidenced by a decrease in the level of pSTAT6 present in the lungs of treated animals at 5 hours compared to the vehicle treated, IL-13 challenged control animals. The difference between the control animals which were vehicle-treated, IL-13 challenged and the control animals which were vehicle-treated, vehicle challenged dictated the 0% and 100% inhibitory effect, respectively, in any given experiment.

[3] = biological target: JAK1 (Homo sapiens (Human), UniProt P23458)
JAK1, sequence (P23458 whole entry): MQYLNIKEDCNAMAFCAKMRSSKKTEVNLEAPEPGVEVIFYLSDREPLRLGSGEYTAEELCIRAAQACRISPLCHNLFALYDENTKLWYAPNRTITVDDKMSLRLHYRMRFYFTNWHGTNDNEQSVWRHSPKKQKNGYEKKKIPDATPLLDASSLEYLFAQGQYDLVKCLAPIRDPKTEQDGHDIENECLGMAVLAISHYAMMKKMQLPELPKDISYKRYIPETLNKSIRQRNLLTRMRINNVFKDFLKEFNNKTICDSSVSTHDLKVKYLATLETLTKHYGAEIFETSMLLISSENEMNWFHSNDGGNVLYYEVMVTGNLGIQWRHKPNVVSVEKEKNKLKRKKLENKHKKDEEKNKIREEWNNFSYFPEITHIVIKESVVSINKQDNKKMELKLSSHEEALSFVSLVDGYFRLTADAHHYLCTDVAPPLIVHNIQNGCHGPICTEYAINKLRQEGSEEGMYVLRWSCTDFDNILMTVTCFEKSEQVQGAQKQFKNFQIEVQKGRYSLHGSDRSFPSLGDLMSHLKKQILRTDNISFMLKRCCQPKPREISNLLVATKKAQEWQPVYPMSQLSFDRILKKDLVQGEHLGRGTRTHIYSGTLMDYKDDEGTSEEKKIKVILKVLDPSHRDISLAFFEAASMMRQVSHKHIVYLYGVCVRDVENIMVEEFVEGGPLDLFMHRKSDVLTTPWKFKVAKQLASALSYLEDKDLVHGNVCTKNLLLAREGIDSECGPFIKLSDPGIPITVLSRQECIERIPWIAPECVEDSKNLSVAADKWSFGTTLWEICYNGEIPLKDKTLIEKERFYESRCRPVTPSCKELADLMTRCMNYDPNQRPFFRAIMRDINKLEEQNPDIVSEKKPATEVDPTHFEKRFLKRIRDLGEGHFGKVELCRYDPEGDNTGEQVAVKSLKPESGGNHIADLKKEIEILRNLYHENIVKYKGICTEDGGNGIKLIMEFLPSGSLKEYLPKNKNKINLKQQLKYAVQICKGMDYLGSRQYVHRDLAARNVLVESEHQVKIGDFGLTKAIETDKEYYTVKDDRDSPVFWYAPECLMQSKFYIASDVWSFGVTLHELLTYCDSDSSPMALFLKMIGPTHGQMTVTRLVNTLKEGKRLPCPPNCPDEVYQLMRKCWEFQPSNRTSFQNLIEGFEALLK

[4] = Pharmacokinetics in plasma and lung in mouse; type: in vivo; details: oral aspiration 0.2 mg/mL 50 uL, lung AUC / plasma AUC
Description: Plasma and lung levels of test compounds and ratios thereof were determined in the following manner. BALB/c mice from Charles River Laboratories were used in the assay. Test compounds were individually formulated in 20% propylene glycol in pH 4 citrate buffer at a concentration of 0.2 mg/mL and 50 uL of the dosing solution was introduced into the trachea of a mouse by oral aspiration. At various time points (typically 0.167, 2, 6, 24 hr) post dosing, blood samples were removed via cardiac puncture and intact lungs were excised from the mice. Blood samples were centrifuged (Eppendorf centrifuge, 5804R) for 4 minutes at approximately 12,000 rpm at 4° C. to collect plasma. Lungs were padded dry, weighed, and homogenized at a dilution of 1:3 in sterile water. Plasma and lung levels of test compound were determined by LC-MS analysis against analytical standards constructed into a standard curve in the test matrix. A lung to plasma ratio was determined as the ratio of the lung AUC in μg hr/g to the plasma AUC in […], where AUC is conventionally defined as the area under the curve of test compound concentration vs. time.

[5] = Dynamic moisture sorption assessment; type: physicochemical
Description: Dynamic moisture sorption (DMS) measurement was performed using a VTI atmospheric microbalance, SGA-100 system (VTI Corp., Hialeah, Fla. 33016). A weighed sample was used and the humidity was lowest possible value (close to 0% RH) at the start of the analysis. The DMS analysis consisted of an initial drying step (˜0% RH) for 120 minutes, followed by two cycles of sorption and desorption with a scan rate of 5% RH/step over the humidity range of 5% RH to 90% RH. The DMS run was performed isothermally at 25° C.

| Compound | pKi [3] | Lung to Plasma ratio Assay 4 [4] | also measured |
| --- | --- | --- | --- |
| CCc1cc(O)c(F)cc1-c1ccc2c(-c3nc4c([nH]3)CCN(CCC(C)C)C4)n[nH]c2c1 [Example C-2] |  |  | fold less potent than the corresponding compound of the invention in the BEAS-2B cellular assay [1]: 6 fold; lung concentration smaller than that of the corresponding compound of the invention by a factor [2]: 52 |
| CCc1cc(O)c(F)cc1-c1ccc2c(-c3nc4c([nH]3)CCN(CC3CCCOC3)C4)n[nH]c2c1 (stereo not shown) [Example C-3] |  |  | fold less potent than the corresponding compound of the invention in the BEAS-2B cellular assay [1]: 3 fold; lung concentration smaller than that of the corresponding compound of the invention by a factor [2]: 13 |
| CCc1cc(O)c(F)cc1-c1ccc2c(-c3nc4c([nH]3)CCN(C3CN(CC)C3)C4)n[nH]c2c1 [Example 1-3] | > 10.00 |  |  |
| CCc1cc(O)c(F)cc1-c1ccc2c(-c3nc4c([nH]3)CCN(CCN3CCC[C@@H]3C)C4)n[nH]c2c1 [Example 15, (S)-5-ethyl-2-fluoro-4-(3-(5-(2-(2-methylpyrrolidin-1-yl)ethyl)-4,5,6,7-tetrahydro-1H-imidazo[4,5-c]pyridin-2-yl)-1H-indazol-6-yl)phenol] |  | A (A denotes a ratio >100) |  |
| CCc1cc(O)c(F)cc1-c1ccc2c(-c3nc4c([nH]3)CCN(C3CN(C5CCS(=O)(=O)C5)C3)C4)n[nH]c2c1 (stereo not shown) [Example 1-15] |  |  | inhibition of STAT6 phosphorylation in the pharmacodynamic assay [2]: exceptions |
| CCc1cc(O)c(F)cc1-c1ccc2c(-c3nc4c([nH]3)CCN(C3CN(CCO)C3)C4)n[nH]c2c1 [Example 1-1] | > 10.00 |  |  |
| CCc1cc(O)c(F)cc1-c1ccc2c(-c3nc4c([nH]3)CCN(C3CN(CCOC)C3)C4)n[nH]c2c1 [Example 1-6] | > 10.00 |  |  |
| CCc1cc(O)c(F)cc1-c1ccc2c(-c3nc4c([nH]3)CCN(CCN(C)CC(C)C)C4)n[nH]c2c1 [Example 3-33] |  | A (A denotes a ratio >100) |  |
| CCc1cc(O)c(F)cc1-c1ccc2c(-c3nc4c([nH]3)CCN(C3CCNCC3)C4)n[nH]c2c1 [Example 2-3] | > 10.00 |  |  |
| CCc1cc(O)c(F)cc1-c1ccc2c(-c3nc4c([nH]3)CCN(CCNC3(C#N)CC3)C4)n[nH]c2c1 [Example 3-1] |  |  | inhibition of STAT6 phosphorylation in the pharmacodynamic assay [2]: exceptions |
| CCc1cc(O)c(F)cc1-c1ccc2c(-c3nc4c([nH]3)CCN(C3CCN(C)CC3)C4)n[nH]c2c1 [crystalline hydrate, Crystalline hydrate of 5-ethyl-2-fluoro-4-(3-(5-(1-methylpiperidin-4-yl)-4,5,6,7-tetrahydro-1H-imidazo[4,5-c]pyridin-2-yl)-1H-indazol-6-yl)phenol] |  |  | weight gain in dynamic moisture sorption ([5]; 5% to 90% relative humidity, about 25° C.): less than 0.12%; hygroscopicity ([5]; two cycles of sorption and desorption): non-hygroscopic |
| CCc1cc(O)c(F)cc1-c1ccc2c(-c3nc4c([nH]3)CCN(C[C@@H]3COCCN3)C4)n[nH]c2c1 [Example 14, (R)-5-Ethyl-2-fluoro-4-(3-(5-(morpholin-3-ylmethyl)-4,5,6,7-tetrahydro-1H-imidazo[4,5-c]pyridin-2-yl)-1H-indazol-6-yl)phenol] |  | A (A denotes a ratio >100) |  |
| CCc1cc(O)c(F)cc1-c1ccc2c(-c3nc4c([nH]3)CCN(CCNC3CC(OC)C3)C4)n[nH]c2c1 (stereo not shown) [Example 8, 5-Ethyl-2-fluoro-4-(3-(5-(2-((3-methoxycyclobutyl)amino)ethyl)-4,5,6,7-tetrahydro-1H-imidazo[4,5-c]pyridin-2-yl)-1H-indazol-6-yl)phenol] |  | A (A denotes a ratio >100) |  |
| CCc1cc(O)c(F)cc1-c1ccc2c(-c3nc4c([nH]3)CCN(C3CCNC3)C4)n[nH]c2c1 (stereo not shown) [Example 9-1] | > 10.00 |  |  |
| CCc1cc(O)c(F)cc1-c1ccc2c(-c3nc4c([nH]3)CCN(C[C@H]3COCCN3)C4)n[nH]c2c1 [Example 13, (S)-5-Ethyl-2-fluoro-4-(3-(5-(morpholin-3-ylmethyl)-4,5,6,7-tetrahydro-1H-imidazo[4,5-c]pyridin-2-yl)-1H-indazol-6-yl)phenol] |  | A (A denotes a ratio >100) |  |
| CCc1cc(O)c(F)cc1-c1ccc2c(-c3nc4c([nH]3)CCN(C[C@@H]3CCCN3C)C4)n[nH]c2c1 [Example 11, (S)-5-ethyl-2-fluoro-4-(3-(5-((1-methylpyrrolidin-2-yl)methyl)-4,5,6,7-tetrahydro-1H-imidazo[4,5-c]pyridin-2-yl)-1H-indazol-6-yl)phenol] |  | A (A denotes a ratio >100) |  |
| CCc1cc(O)c(F)cc1-c1ccc2c(-c3nc4c([nH]3)CCN(C3CN(CCC#N)C3)C4)n[nH]c2c1 [Example 1-8] | > 10.00 |  |  |
| CCc1cc(O)c(F)cc1-c1ccc2c(-c3nc4c([nH]3)CCN(C3CCC(C)CC3)C4)n[nH]c2c1 (stereo not shown) [Example C-4] |  |  | fold less potent than the corresponding compound of the invention in the BEAS-2B cellular assay [1]: 6 fold; lung concentration smaller than that of the corresponding compound of the invention by a factor [2]: 23 |
| CCc1cc(O)c(F)cc1-c1ccc2c(-c3nc4c([nH]3)CCN(CC3CNC3)C4)n[nH]c2c1 [Example 14-7] | > 10.00 | A (A denotes a ratio >100) |  |
| CCc1cc(O)c(F)cc1-c1ccc2c(-c3nc4c([nH]3)CCN(C3CC(C)C3)C4)n[nH]c2c1 (stereo not shown) [Example C-1, 5-Ethyl-2-fluoro-4-(3-(5-(3-methylcyclobutyl)-4,5,6,7-tetrahydro-1H-imidazo[4,5-c]pyridin-2-yl)-1H-indazol-6-yl)phenol] |  |  | lung concentration smaller than that of the corresponding compound of the invention by a factor [2]: 36 |
